What all share (test): biochemical
Assay type in all cases: biochemical

Experiment [1] addresses T1, 363 human kinases (including Aurora A/B/C) (Homo sapiens, UniProt Q7L7X3).
T1 sequence (Q7L7X3 1-1001): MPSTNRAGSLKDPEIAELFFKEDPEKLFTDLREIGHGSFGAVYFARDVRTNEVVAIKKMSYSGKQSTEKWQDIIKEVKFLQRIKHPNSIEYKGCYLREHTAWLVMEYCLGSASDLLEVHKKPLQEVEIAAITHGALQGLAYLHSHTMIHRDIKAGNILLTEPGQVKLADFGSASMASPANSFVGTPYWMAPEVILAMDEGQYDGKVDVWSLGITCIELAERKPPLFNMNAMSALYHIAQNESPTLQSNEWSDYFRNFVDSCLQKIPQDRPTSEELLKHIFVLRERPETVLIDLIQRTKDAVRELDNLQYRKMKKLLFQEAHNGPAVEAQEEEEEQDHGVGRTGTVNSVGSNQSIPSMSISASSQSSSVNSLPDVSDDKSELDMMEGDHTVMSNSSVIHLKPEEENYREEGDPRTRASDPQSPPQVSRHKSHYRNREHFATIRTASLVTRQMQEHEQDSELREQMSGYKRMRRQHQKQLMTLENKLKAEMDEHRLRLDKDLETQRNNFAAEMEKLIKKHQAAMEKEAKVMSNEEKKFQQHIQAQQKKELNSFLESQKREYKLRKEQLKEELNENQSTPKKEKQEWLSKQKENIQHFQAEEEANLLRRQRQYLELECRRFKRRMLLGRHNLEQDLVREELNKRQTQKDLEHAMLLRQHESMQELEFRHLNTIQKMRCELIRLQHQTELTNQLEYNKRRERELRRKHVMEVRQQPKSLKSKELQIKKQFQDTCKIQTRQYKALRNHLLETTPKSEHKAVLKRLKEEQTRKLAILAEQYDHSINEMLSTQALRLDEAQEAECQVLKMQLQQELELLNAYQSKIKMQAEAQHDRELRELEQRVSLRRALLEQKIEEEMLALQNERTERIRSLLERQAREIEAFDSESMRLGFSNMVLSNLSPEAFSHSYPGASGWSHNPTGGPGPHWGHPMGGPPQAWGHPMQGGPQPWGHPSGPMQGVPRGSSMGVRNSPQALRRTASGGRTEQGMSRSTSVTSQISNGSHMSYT
The following applies: TAOK1; for remaining activity at 0.5 µM / remaining activity at 0.1 µM: read-out: % Enzyme Activity (relative to DMSO controls); for remaining activity at 0.1 µM: 100 nM.
Source text: (§1) However, the Aurora A/B selectivity ratios derived from our in vitro and in vivo data can be compared to prioritize inhibitors.

For experiment [2], the target named is 363 human kinases (including Aurora A/B/C) (Homo sapiens, UniProt P29317). The following applies: EPHA2, [ATP] 50 µM; for remaining activity at 0.5 µM / remaining activity at 0.1 µM: read-out: % Enzyme Activity (relative to DMSO controls); for remaining activity at 0.1 µM: 100 nM.
Sequence of 363 human kinases (including Aurora A/B/C) (Homo sapiens, UniProt P29317) (P29317 24-976): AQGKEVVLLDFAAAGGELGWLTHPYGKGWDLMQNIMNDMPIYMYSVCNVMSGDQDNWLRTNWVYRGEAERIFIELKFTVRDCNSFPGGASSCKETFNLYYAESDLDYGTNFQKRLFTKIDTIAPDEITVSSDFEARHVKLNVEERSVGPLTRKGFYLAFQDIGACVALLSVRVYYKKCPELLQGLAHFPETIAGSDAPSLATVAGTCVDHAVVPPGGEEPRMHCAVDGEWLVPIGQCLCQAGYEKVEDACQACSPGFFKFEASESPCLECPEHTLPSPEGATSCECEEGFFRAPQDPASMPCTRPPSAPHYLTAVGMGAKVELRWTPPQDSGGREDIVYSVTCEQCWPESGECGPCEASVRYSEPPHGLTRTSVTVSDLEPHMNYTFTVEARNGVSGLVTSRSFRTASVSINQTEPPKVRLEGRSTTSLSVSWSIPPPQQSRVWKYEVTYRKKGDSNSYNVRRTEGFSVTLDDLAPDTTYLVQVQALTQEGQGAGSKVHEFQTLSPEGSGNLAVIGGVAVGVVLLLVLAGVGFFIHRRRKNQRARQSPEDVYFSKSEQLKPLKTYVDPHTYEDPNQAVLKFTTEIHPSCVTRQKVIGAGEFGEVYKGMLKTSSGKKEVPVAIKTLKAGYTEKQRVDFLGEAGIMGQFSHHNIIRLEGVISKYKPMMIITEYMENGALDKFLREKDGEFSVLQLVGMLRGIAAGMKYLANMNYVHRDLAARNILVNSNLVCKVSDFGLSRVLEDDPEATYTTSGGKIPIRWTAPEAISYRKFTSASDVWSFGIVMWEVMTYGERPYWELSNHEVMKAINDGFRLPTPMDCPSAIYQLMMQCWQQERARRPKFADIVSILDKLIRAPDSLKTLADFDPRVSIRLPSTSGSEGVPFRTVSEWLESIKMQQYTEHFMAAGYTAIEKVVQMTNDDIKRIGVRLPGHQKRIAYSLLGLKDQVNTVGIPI
Source text: as §1
For experiment [3], the target named is 363 human kinases (including Aurora A/B/C) (Homo sapiens, UniProt P24723). The note with it: PKCeta; for remaining activity at 0.5 µM / remaining activity at 0.1 µM: read-out: % Enzyme Activity (relative to DMSO controls); for remaining activity at 0.1 µM: 100 nM.
Sequence of 363 human kinases (including Aurora A/B/C) (Homo sapiens, UniProt P24723) (P24723 whole entry): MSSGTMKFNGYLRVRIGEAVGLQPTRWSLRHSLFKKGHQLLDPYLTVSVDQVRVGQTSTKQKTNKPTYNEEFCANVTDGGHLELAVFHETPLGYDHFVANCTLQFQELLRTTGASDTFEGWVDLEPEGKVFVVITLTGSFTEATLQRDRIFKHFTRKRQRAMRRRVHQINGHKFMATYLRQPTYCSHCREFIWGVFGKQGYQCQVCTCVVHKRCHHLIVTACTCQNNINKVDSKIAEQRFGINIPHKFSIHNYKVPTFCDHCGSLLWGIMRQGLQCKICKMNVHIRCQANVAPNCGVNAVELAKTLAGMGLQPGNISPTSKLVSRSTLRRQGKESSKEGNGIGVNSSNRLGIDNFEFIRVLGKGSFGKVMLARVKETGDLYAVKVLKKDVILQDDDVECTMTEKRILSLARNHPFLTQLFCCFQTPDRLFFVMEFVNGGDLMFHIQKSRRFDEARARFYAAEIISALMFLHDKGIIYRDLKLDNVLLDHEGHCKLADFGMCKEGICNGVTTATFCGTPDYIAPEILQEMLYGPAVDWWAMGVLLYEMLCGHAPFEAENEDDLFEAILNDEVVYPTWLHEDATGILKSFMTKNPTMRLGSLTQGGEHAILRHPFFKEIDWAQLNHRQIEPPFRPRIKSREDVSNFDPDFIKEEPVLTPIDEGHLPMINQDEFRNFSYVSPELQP
Source text: as §1
In experiment [4] the target is T2, 363 human kinases (including Aurora A/B/C) (Homo sapiens, UniProt Q09013).
T2 sequence (Q09013 1-629): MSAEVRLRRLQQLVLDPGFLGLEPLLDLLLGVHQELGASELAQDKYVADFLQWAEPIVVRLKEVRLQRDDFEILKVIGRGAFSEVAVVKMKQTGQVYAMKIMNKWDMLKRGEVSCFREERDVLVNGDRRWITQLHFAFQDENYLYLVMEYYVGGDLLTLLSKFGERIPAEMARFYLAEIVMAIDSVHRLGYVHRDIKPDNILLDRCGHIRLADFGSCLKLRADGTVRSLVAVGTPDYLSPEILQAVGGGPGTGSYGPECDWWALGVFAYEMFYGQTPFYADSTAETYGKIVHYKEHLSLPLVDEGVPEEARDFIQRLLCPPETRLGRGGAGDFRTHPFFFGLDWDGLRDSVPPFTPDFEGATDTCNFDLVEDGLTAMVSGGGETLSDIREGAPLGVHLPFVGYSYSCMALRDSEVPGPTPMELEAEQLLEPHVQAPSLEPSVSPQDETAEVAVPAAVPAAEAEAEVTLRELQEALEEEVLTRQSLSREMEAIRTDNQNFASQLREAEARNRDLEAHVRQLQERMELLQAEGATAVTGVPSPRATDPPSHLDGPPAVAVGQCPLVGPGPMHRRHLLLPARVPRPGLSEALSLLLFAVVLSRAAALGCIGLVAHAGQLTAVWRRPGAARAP
The following applies: DMPK, [ATP] 15 µM; for remaining activity at 0.5 µM / remaining activity at 0.1 µM: read-out: % Enzyme Activity (relative to DMSO controls); for remaining activity at 0.1 µM: 100 nM.
Source text: as §1

In experiment [5] the target is 363 human kinases (including Aurora A/B/C) (Homo sapiens, UniProt P42684). The note with it: ABL2/ARG, [ATP] 30 µM; for remaining activity at 0.5 µM / remaining activity at 0.1 µM: read-out: % Enzyme Activity (relative to DMSO controls); for remaining activity at 0.1 µM: 100 nM.
Sequence of 363 human kinases (including Aurora A/B/C) (Homo sapiens, UniProt P42684) (P42684 whole entry): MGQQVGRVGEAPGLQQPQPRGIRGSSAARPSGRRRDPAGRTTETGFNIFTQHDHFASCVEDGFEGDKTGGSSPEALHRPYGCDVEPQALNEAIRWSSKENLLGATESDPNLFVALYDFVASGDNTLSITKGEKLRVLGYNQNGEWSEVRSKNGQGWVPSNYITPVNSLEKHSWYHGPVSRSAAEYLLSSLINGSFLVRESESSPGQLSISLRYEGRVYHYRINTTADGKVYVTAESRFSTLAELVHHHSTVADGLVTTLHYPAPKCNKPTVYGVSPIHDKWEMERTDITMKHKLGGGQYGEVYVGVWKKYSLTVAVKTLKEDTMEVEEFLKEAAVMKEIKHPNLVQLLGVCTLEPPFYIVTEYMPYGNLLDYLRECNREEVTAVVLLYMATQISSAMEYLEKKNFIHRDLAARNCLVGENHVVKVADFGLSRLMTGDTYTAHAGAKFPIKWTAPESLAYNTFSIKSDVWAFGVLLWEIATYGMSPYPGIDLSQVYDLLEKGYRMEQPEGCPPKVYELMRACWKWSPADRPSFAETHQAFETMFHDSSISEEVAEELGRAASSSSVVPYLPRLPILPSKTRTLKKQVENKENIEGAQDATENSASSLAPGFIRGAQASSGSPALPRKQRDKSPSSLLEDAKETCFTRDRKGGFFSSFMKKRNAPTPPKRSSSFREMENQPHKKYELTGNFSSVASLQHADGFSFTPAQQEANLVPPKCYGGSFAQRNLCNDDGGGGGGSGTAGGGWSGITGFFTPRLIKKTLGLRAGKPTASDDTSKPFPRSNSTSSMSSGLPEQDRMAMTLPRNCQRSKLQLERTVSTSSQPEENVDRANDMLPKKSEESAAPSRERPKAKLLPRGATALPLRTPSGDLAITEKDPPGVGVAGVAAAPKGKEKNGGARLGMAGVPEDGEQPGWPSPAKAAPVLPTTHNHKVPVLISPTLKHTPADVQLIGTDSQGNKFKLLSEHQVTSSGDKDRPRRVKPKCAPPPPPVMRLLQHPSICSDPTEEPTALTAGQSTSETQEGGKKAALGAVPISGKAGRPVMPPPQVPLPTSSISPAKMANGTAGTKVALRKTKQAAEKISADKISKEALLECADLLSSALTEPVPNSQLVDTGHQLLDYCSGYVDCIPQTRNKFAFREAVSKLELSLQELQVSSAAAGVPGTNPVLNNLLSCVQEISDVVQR
Source text: as §1
The target of experiment [6] is 363 human kinases (including Aurora A/B/C) (Homo sapiens, UniProt Q6P5Z2). The following applies: PKN3/PRK3; for remaining activity at 0.5 µM / remaining activity at 0.1 µM: read-out: % Enzyme Activity (relative to DMSO controls); for remaining activity at 0.1 µM: 100 nM.
Sequence of 363 human kinases (including Aurora A/B/C) (Homo sapiens, UniProt Q6P5Z2) (Q6P5Z2 whole entry): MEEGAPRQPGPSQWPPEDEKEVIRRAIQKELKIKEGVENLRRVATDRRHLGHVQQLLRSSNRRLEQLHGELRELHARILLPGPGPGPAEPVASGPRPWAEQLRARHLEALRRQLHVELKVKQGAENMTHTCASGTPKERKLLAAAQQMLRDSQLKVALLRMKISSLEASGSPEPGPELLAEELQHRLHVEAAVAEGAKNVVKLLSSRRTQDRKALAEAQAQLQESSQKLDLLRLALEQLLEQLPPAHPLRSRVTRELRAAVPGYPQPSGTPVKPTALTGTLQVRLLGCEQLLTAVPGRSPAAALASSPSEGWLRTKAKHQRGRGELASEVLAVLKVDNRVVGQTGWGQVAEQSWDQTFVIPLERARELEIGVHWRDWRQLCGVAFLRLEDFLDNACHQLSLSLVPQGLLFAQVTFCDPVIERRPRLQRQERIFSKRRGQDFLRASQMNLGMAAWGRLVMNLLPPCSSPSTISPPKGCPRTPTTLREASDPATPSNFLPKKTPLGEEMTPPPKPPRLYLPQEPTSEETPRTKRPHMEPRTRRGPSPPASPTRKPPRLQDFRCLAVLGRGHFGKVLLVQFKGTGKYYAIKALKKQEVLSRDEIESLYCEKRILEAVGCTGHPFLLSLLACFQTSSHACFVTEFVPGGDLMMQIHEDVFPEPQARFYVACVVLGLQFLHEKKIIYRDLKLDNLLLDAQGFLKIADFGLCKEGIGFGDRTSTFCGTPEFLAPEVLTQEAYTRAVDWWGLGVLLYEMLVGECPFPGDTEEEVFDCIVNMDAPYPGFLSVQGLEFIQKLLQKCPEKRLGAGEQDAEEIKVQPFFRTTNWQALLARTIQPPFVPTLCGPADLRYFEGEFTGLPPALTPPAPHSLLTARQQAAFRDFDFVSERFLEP
Source text: as §1

Structures are written as SMILES.

For the compound `O=C(c1cccc(Cl)c1F)N1CCN(Cc2cccc(Nc3nccs3)n2)CC1` [MK-8745], the “% Enzyme Activity (relative to DMSO controls)” value in experiment [1] (500 nM) was found to be 88.72%; in experiment [2] (500 nM), 62.60%; in experiment [3] (500 nM), 164.83%; in experiment [4] (500 nM), 114.90%; in experiment [5] (500 nM), 85.19%; in experiment [6] (500 nM), 100.01%. Further, the remaining activity at 0.5 µM in experiment [1] (500 nM) came out at 89.7%; in experiment [2] (500 nM) it was 63.4%; in experiment [3] (500 nM), 166%; in experiment [4] (500 nM) it was 115%; in experiment [5] (500 nM), 85.8%; in experiment [6] (500 nM), 100%.
Consider `CCn1cc(-c2ccnc3[nH]c(-c4cccc(CN(C)C)c4)cc23)c(-c2ccc(NC(=O)N(C)C)cc2)n1` [GSK1070916], for which the remaining activity at 0.1 µM in experiment [1] was 96%; in experiment [2], 92.7%; in experiment [3], 103%; in experiment [4], 114%; in experiment [5], 94.2%; in experiment [6], 107%.
Turning to `O=C(O)[C@]1(Cc2cccc(Nc3nccs3)n2)CC[C@@H](Oc2cccc(Cl)c2F)CC1` [MK-5108], the remaining activity at 0.1 µM in experiment [1] worked out at 89.5%; in experiment [2], 13.4%; in experiment [3], 134%; in experiment [4], 105%; in experiment [5] it was 12.2%; in experiment [6], 90.8%. Also, the remaining activity at 0.5 µM in experiment [1] (500 nM) was 70.3%; in experiment [2] (500 nM) it was 4.4%; in experiment [3] (500 nM) it was 115%; in experiment [4] (500 nM), 115%; in experiment [5] (500 nM), 2.32%; in experiment [6] (500 nM) it was 88.2%.
